Like-named read-outs stand apart in the source and are kept apart here.
Test system: Aβ42 production in primary nerve cells
Assay: Measurement of amyloid β production inhibition rate using primary nerve cell (Aβ42 sandwich ELISA)
Format: cell-based
Conditions: primary nerve cells from cerebral cortex of SD rat fetus, cultured 3 days with compound, culture supernatant, sandwich ELISA for Aβ42, read-out: Aβ42 production inhibitory activity IC50
Experimental: Measurement of Amyloid β Production Inhibition Rate Using Primary Nerve Cell
The primary nerve cells were collected from the cerebral cortex of rat fetus (CLEA Japan, Inc.: SD rat, fetal life 17 days of age), and suspended in a neurobasal medium containing B27 supplement, L-glutamine, penicillin-streptomycin (manufactured by Invitrogen) at 500,000 cells/mL. Then, the suspension was seeded in poly L-lysine-coated 96 well plate (manufactured by SUMITOMO BAKELITE) by 100 μL, and cultured at 37° C., 5% CO2 for 7 days. The medium was completely removed, and a new neurobasal medium was added at 75 μL/well. Thereto was added (75 μL/well) a neurobasal medium supplemented with a 2-fold measurement concentration of an evaluation target compound, and the mixture was cultured for 3 days. The culture supernatant was collected from each well, diluted as appropriate, applied to sandwich ELISA between BNT77 antibody-BA27 antibody (for Aβ40) and sandwich ELISA between BNT77 antibody-3005 antibody (for Aβ42), and the amounts of Aβ40 and Aβ42 were measured.
The amyloid β production inhibition rate (%) of the compound was calculated by the following formula. (1−(amyloid β production amount with addition of compound)/(amyloid β production amount without addition of compound))×100
The amyloid β production 50% inhibitory rate (IC50 value) was calculated using the statistical analysis software (SAS Preclinical Package) as the concentration of the compound showing 50% inhibition when the amyloid β production amount without addition of the compound is 100%. In addition, a new neurobasal medium was added (75 μL/well) to the cells after collection of the culture supernatant, and the cells were left standing for about 30 min to reach room temperature. Cell-Titer Glo Luminescent Cell Viability Assay (manufactured by Promega) was added at 75 μL/well, and the plate was shaken for 2 min and reacted for about 10 min.

| SMILES | IC50 (Rattus norvegicus, 72 h) [nM] | IC50 [nM] |
| --- | --- | --- |
| COc1cc(-c2nnc3n2CCCC3(Nc2cc(F)c(F)c(F)c2)C(C)(C)O)ccc1-c1cnc(C)o1 (stereo not shown) [Example 181, 2-{3-[3-methoxy-4-(2-methyl-1,3-oxazol-5-yl)phenyl]-8-[(3,4,5-trifluorophenyl)amino]-5,6,7,8-tetrahydro[1,2,4]triazolo[4,3-a]pyridin-8-yl}propan-2-ol] | 58 |  |
| Cc1ncc(-c2ccc(-c3nnc4n3CCCC4(Oc3cc(F)c(F)c(F)c3)C(C)(C)O)cc2F)o1 (stereo not shown) [Example 166, 2-{3-[3-fluoro-4-(2-methyl-1,3-oxazol-5-yl)phenyl]-8-(3,4,5-trifluorophenoxy)-5,6,7,8-tetrahydro[1,2,4]triazolo[4,3-a]pyridin-8-yl}propan-2-ol] | 360 |  |
| COc1cc(-c2nnc3n2CCCC3(Cc2ccc(F)c(F)c2)C(C)(C)O)ccc1-c1cnc(C)o1 (stereo not shown) [Example 50, optically active 2-{8-(3,4-difluorobenzyl)-3-[3-methoxy-4-(2-methyl-1,3-oxazol-5-yl)phenyl]-5,6,7,8-tetrahydro[1,2,4]triazolo[4,3-a]pyridin-8-yl}propan-2-ol] |  | 14 |
| COc1cc(-c2nnn3c2CCCC3(C)c2ccc(Cl)c(Cl)c2)ccc1-n1cnc(C)n1 (stereo not shown) [Example 91, 7-(3,4-dichlorophenyl)-3-[3-methoxy-4-(3-methyl-1H-1,2,4-triazol-1-yl)phenyl]-7-methyl-4,5,6,7-tetrahydro[1,2,3]triazolo[1,5-a]pyridine] | 148 |  |
| Cc1ncc(-c2ccc(-c3nnc4n3CCCC4(Oc3cc(F)c(F)c(F)c3)C(C)(C)O)cc2)o1 (stereo not shown) [Example 178, 2-{3-[4-(2-methyl-1,3-oxazol-5-yl)phenyl]-8-(3,4,5-trifluorophenoxy)-5,6,7,8-tetrahydro[1,2,4]triazolo[4,3-a]pyridin-8-yl}propan-2-ol] | 168 |  |
| COc1cc(-c2nnc3n2CC(C)CC3(Oc2ccc(F)c(F)c2)C(C)(C)O)ccc1-c1cnc(C)o1 (stereo not drawn) [Example 150, (6RS,8RS or 6RS,8SR)-2-{8-(3,4-difluorophenoxy)-3-[3-methoxy-4-(2-methyl-1,3-oxazol-5-yl)phenyl]-6-methyl-5,6,7,8-tetrahydro[1,2,4]triazolo[4,3-a]pyridin-8-yl}propan-2-ol] | 118 |  |
| COc1cc(-c2nnc3n2CCCC3(CC2CC2)c2ccc(F)c(F)c2)ccc1-c1cnc(C)o1 (stereo not shown) [Example 20, 8-(cyclopropylmethyl)-8-(3,4-difluorophenyl)-3-[3-methoxy-4-(2-methyl-1,3-oxazol-5-yl)phenyl]-5,6,7,8-tetrahydro[1,2,4]triazolo-[4,3-a]pyridine] |  | 35 |
| COc1nc(-c2nnc3n2CCC[C@]3(Oc2cc(F)c(F)c(F)c2)C(C)(C)O)ccc1-n1cnc(C)c1 [Example 194, 2-{(8R)-3-[6-methoxy-5-(4-methyl-1H-imidazol-1-yl)pyridin-2-yl]-8-(3,4,5-trifluorophenoxy)-5,6,7,8-tetrahydro[1,2,4]triazolo[4,3-a]pyridin-8-yl}propan-2-ol 0.67 phosphate] |  | 33 |
| COc1cc(-c2nnc3n2CCCC3(C)c2ccc(Cl)cc2)ccc1-c1cnc(C)o1 (single isomer, unassigned) [Example 3, 8-(4-chlorophenyl)-3-[3-methoxy-4-(2-methyl-1,3-oxazol-5-yl)phenyl]-8-methyl-5,6,7,8-tetrahydro[1,2,4]triazolo[4,3-a]pyridine] |  | 459 |
| COc1cc(-c2nnc3n2CCCC3(Oc2ccc(Cl)c(F)c2)C(C)(C)O)ccc1-c1cnc(C)o1 (stereo not shown) [Example 70, 2-{8-(4-chloro-3-fluorophenoxy)-3-[3-methoxy-4-(2-methyl-1,3-oxazol-5-yl)phenyl]-5,6,7,8-tetrahydro[1,2,4]triazolo[4,3-a]pyridin-8-yl}propan-2-ol] | 10 |  |
| COc1cc(-c2nnc3n2CCCC3(Cc2ccc(F)c(F)c2)C(=O)N(C)CC(F)(F)F)ccc1-c1cnc(C)o1 (stereo not shown) [Example 60, 8-(3,4-difluorobenzyl)-3-[3-methoxy-4-(2-methyl-1,3-oxazol-5-yl)phenyl]-N-methyl-N-(2,2,2-trifluoroethyl)-5,6,7,8-tetrahydro[1,2,4]triazolo[4,3-a]pyridine-8-carboxamide] | 50 |  |
| Cc1ncc(-c2ccc(-c3nnc4n3CCCC4(Oc3ccc(F)c(F)c3)C(C)(C)O)cc2O)o1 (stereo not shown) [Example 168, 5-[8-(3,4-difluorophenoxy)-8-(1-hydroxy-1-methylethyl)-5,6,7,8-tetrahydro[1,2,4]triazolo[4,3-a]pyridin-3-yl]-2-(2-methyl-1,3-oxazol-5-yl)phenol] | 40 |  |
| COc1cc(-c2nnc3n2CCCC3(Oc2cc(F)c(F)c(F)c2)C(=O)N(C)CC(F)(F)F)ccc1-c1cnc(C)o1 (stereo not shown) [Example 160, 3-[3-methoxy-4-(2-methyl-1,3-oxazol-5-yl)phenyl]-N-methyl-N-(2,2,2-trifluoro-ethyl)-8-(3,4,5-trifluorophenoxy)-5,6,7,8-tetrahydro-[1,2,4]triazolo[4,3-a]pyridine-8-carboxamide] | 19 |  |
| COc1cc(-c2nnc3n2CCCC3(Oc2ccc(C(F)(F)F)cn2)C(C)(C)O)ccc1-c1cnc(C)o1 (stereo not shown) [Example 95, 2-(3-[3-methoxy-4-(2-methyl-1,3-oxazol-5-yl)phenyl]-8-{[5-(trifluoromethyl)pyridin-2-yl]oxy}-5,6,7,8-tetrahydro[1,2,4]triazolo-[4,3-a]pyridin-8-yl)propan-2-ol] | 34 |  |
| COc1cc(-c2nnc3n2CCCC3(c2ccc(F)c(F)c2)C(C)(C)O)ccc1-c1cnc(C)o1 (stereo not shown) [Example 32, 2-{8-(3,4-difluorophenyl)-3-[3-methoxy-4-(2-methyl-1,3-oxazol-5-yl)phenyl]-5,6,7,8-tetrahydro[1,2,4]triazolo[4,3-a]pyridin-8-yl}propan-2-ol] | 143 |  |
| COc1cc(-c2nnc3n2CCCC3(Sc2ccc(F)c(F)c2)C(C)(C)O)ccc1-c1cnc(C)o1 (stereo not shown) [Example 140, 2-{8-[(3,4-difluorophenyl)sulfanyl]-3-[3-methoxy-4-(2-methyl-1,3-oxazol-5-yl)phenyl]-5,6,7,8-tetrahydro[1,2,4]triazolo[4,3-a]pyridin-8-yl}propan-2-ol] | 41 |  |
| COc1nc(-c2nnc3n2CCCC3(Oc2ccc(F)c(F)c2)C(C)(C)O)ccc1-n1cnc(C)c1 (stereo not shown) [Example 135, 2-{8-(3,4-difluorophenoxy)-3-[6-methoxy-5-(4-methyl-1H-imidazol-1-yl)pyridin-2-yl]-5,6,7,8-tetrahydro[1,2,4]triazolo[4,3-a]pyridin-8-yl}propan-2-ol] | 123 |  |
| COc1nc(-c2nnc3n2CCC[C@]3(Oc2cc(F)c(F)c(F)c2)C(C)(C)O)ccc1-n1cnc(C)c1 [Example 177, 2-{(8R)-3-[6-methoxy-5-(4-methyl-1H-imidazol-1-yl)pyridin-2-yl]-8-(3,4,5-trifluorophenoxy)-5,6,7,8-tetrahydro[1,2,4]triazolo[4,3-a]pyridin-8-yl}propan-2-ol monophosphate] |  | 34 |
| Cc1ncc(-c2ccc(-c3nnc4n3CCCC4(Oc3ccc(F)c(F)c3)C(C)(C)O)cc2OCC(F)F)o1 (stereo not shown) [Example 175, 2-{3-[3-(2,2-difluoroethoxy)-4-(2-methyl-1,3-oxazol-5-yl)phenyl]-8-(3,4-difluorophenoxy)-5,6,7,8-tetrahydro[1,2,4]-triazolo[4,3-a]pyridin-8-yl}propan-2-ol] | 103 |  |
